Assay results: patent US20240368096A1 (Enanta Pharmaceuticals, Inc., priority 2022, published 2024)

System: HBV
Test: HBV infection in HepG2-NTCP cells (HBeAg AlphaLISA in supernatants)
Type: cell-based
Conditions: Hepatitis B virus, 192 h; HBV infection of HepG2-NTCP cells; HBeAg in supernatants at day 8 post infection; read-out: Cellular EC50
Protocol: HepG2-NTCP A3 cells were maintained in DMEM media supplemented with GlutaMAX™ 10% fetal bovine serum, 1% penicillin/streptomycin, and 5 μg/mL puromycin at 37° C. in a humidified atmosphere with 5% CO2 in a collagen-coated tissue culture flask.
HepG2-NTCP cells were seeded in 384 well plate containing 16,000 cells/well two days prior to the infection. On the day of infection, compounds were 3-fold serially diluted in DMSO and pre-incubated with HepG2-NTCP cells for two hours before purified HBV addition. HBV infection was carried out at 2000 GE/cell with 4% PEG, and the final concentration of DMSO is 0.5%. On day one post infection, HBV-containing media was aspirated, cells were washed once with PBS and then maintained in 2.5% DMSO containing media for the remainder of the assay.
Supernatants from infected HepG2-NTCP cells were collected at day 8 post infection, and the amount of viral antigen HBeAg was measured by HBeAg AlphaLISA detection kit (PerkinElmer) following the manufacturer's recommended protocol. Irrespective of readout, compound concentrations that reduce viral product accumulation in supernatants by […] relative to DMSO controls (EC50) are reported. EC50 ranges are as follows: A<0.1 μM; B 0.1-1 μM; C>1 μM.

Row | SMILES | EC50
1 | CN1[C@H](C2CCOCC2)CN(c2ccccc2)c2cc(Cl)c(-c3ccc(F)c(C(=O)O)c3)cc2S1(=O)=O [Example 105, (R)-5-(7-chloro-2-methyl-1,1-dioxido-5-phenyl-3-(tetrahydro-2H-pyran-4-yl)-2,3,4,5-tetrahydrobenzo[f][1,2,5]thiadiazepin-8-yl)-2-fluorobenzoic acid] | 100 to 1000 nM
2 | CN1[C@H](C2COC2)CN(c2ccccc2)c2cc(Cl)c(-c3ccc(F)c(C(=O)O)c3)cc2S1(=O)=O [Example 106] | > 1000 nM
3 | CN1[C@H](CBr)CN(c2ccccc2)c2cc(Cl)c(-c3ccc(F)c(C(=O)O)c3)cc2S1(=O)=O [Example 107, (S)-5-(3-(bromomethyl)-7-chloro-2-methyl-1,1-dioxido-5-phenyl-2,3,4,5-tetrahydrobenzo[f][1,2,5]thiadiazepin-8-yl)-2-fluorobenzoic acid] | > 1000 nM
4 | CN1[C@H](CN2CCCCC2)CN(c2ccccc2)c2cc(Cl)c(-c3ccc(F)c(C(=O)O)c3)cc2S1(=O)=O [Example 108, (R)-5-(7-chloro-2-methyl-1,1-dioxido-5-phenyl-3-(piperidin-1-ylmethyl)-2,3,4,5-tetrahydrobenzo[f][1,2,5]thiadiazepin-8-yl)-2-fluorobenzoic acid] | > 1000 nM
5 | CN1[C@H](CN2CCOCC2)CN(c2ccccc2)c2cc(Cl)c(-c3ccc(F)c(C(=O)O)c3)cc2S1(=O)=O [Example 109] | > 1000 nM
6 | CN1[C@H](CN2CCCC2)CN(c2ccccc2)c2cc(Cl)c(-c3ccc(F)c(C(=O)O)c3)cc2S1(=O)=O [Example 110] | > 1000 nM
7 | CN1[C@H](CN2CCC(F)(F)C2)CN(c2ccccc2)c2cc(Cl)c(-c3ccc(F)c(C(=O)O)c3)cc2S1(=O)=O [Example 111] | > 1000 nM
8 | CN1[C@H](CN2CCCC(F)(F)C2)CN(c2ccccc2)c2cc(Cl)c(-c3ccc(F)c(C(=O)O)c3)cc2S1(=O)=O [Example 112] | > 1000 nM
9 | CN1[C@H](CN2CCC(F)(F)CC2)CN(c2ccccc2)c2cc(Cl)c(-c3ccc(F)c(C(=O)O)c3)cc2S1(=O)=O [Example 113] | > 1000 nM
10 | CN1[C@H](CNC(C)(C)C)CN(c2ccccc2)c2cc(Cl)c(-c3ccc(F)c(C(=O)O)c3)cc2S1(=O)=O [Example 114] | > 1000 nM
11 | CN1[C@H](CN2CCCC2=O)CN(c2ccccc2)c2cc(Cl)c(-c3ccc(F)c(C(=O)O)c3)cc2S1(=O)=O [Example 115] | > 1000 nM
12 | Cc1sc(-c2cc3c(cc2Cl)N(c2ccccc2)C[C@@H](C2CCCCC2)N(C)S3(=O)=O)nc1C(=O)O [Example 125] | 100 to 1000 nM
13 | CN1[C@H](C2CCCCC2)CN(c2ccccc2)c2cc(Cl)c(-c3cc(C(=O)O)cs3)cc2S1(=O)=O [Example 129, (R)-5-(7-chloro-3-cyclohexyl-2-methyl-1,1-dioxido-5-phenyl-2,3,4,5-tetrahydrobenzo[f][1,2,5]thiadiazepin-8-yl)thiophene-3-carboxylic acid] | 100 to 1000 nM
14 | CN1[C@H](C2CCCCC2)CN(c2ccccc2)c2cc(Cl)c(-c3nc(C(=O)O)co3)cc2S1(=O)=O [Example 131, (R)-2-(7-chloro-3-cyclohexyl-2-methyl-1,1-dioxido-5-phenyl-2,3,4,5-tetrahydrobenzo[f][1,2,5]thiadiazepin-8-yl)oxazole-4-carboxylic acid] | 100 to 1000 nM
15 | CN1[C@H](C2CCCCC2)CN(c2ccccc2)c2cc(Cl)c(-c3ncc(C(=O)O)o3)cc2S1(=O)=O [Example 132, (R)-2-(7-chloro-3-cyclohexyl-2-methyl-1,1-dioxido-5-phenyl-2,3,4,5-tetrahydrobenzo[f][1,2,5]thiadiazepin-8-yl)oxazole-5-carboxylic acid] | 100 to 1000 nM
16 | CN1[C@H](C2CCCCC2)CN(c2ccccc2)c2cc(Cl)c(-c3cc(C(=O)O)nn3C)cc2S1(=O)=O [Example 133, (R)-5-(7-chloro-3-cyclohexyl-2-methyl-1,1-dioxido-5-phenyl-2,3,4,5-tetrahydrobenzo[f][1,2,5]thiadiazepin-8-yl)-1-methyl-1H-pyrazole-3-carboxylic acid] | 100 to 1000 nM
17 | CN1[C@H](C2CCCCC2)CN(c2ccccc2)c2cc(Cl)c(-c3cc(C(=O)O)[nH]n3)cc2S1(=O)=O [Example 135, (R)-3-(7-chloro-3-cyclohexyl-2-methyl-1,1-dioxido-5-phenyl-2,3,4,5-tetrahydrobenzo[f][1,2,5]thiadiazepin-8-yl)-1H-pyrazole-5-carboxylic acid] | 100 to 1000 nM
18 | CN1[C@H](C2CCCCC2)CN(c2ccccc2)c2cc(Cl)c(-c3cncc(C(=O)O)c3)cc2S1(=O)=O [Example 136, (R)-5-(7-chloro-3-cyclohexyl-2-methyl-1,1-dioxido-5-phenyl-2,3,4,5-tetrahydrobenzo[f][1,2,5]thiadiazepin-8-yl)nicotinic acid] | > 1000 nM
19 | CN1[C@H](C2CCCCC2)CN(c2ccccc2)c2cc(Cl)c(-c3ccnc(C(=O)O)c3)cc2S1(=O)=O [Example 137, (R)-4-(7-chloro-3-cyclohexyl-2-methyl-1,1-dioxido-5-phenyl-2,3,4,5-tetrahydrobenzo[f][1,2,5]thiadiazepin-8-yl)picolinic acid] | 100 to 1000 nM
20 | CN1[C@H](C2CCCCC2)CN(c2ccccc2)c2cc(Cl)c(-c3cccc(C(=O)O)n3)cc2S1(=O)=O [Example 138, (R)-6-(7-chloro-3-cyclohexyl-2-methyl-1,1-dioxido-5-phenyl-2,3,4,5-tetrahydrobenzo[f][1,2,5]thiadiazepin-8-yl)picolinic acid] | 100 to 1000 nM
21 | CN1[C@H](C2CCCCC2)CN(c2ccccc2)c2cc(Cl)c(-c3cc(C(=O)O)ccn3)cc2S1(=O)=O [Example 139, (R)-2-(7-chloro-3-cyclohexyl-2-methyl-1,1-dioxido-5-phenyl-2,3,4,5-tetrahydrobenzo[f][1,2,5]thiadiazepin-8-yl)isonicotinic acid] | 100 to 1000 nM
22 | CN1[C@H](C2CCCCC2)CN(c2ccccc2)c2cc(Cl)c(-c3cc(C(=O)O)ncn3)cc2S1(=O)=O [Example 140, (R)-6-(7-chloro-3-cyclohexyl-2-methyl-1,1-dioxido-5-phenyl-2,3,4,5-tetrahydrobenzo[f][1,2,5]thiadiazepin-8-yl)pyrimidine-4-carboxylic acid] | 100 to 1000 nM
23 | CN1[C@H](C2CCCCC2)CN(c2ccccc2)c2cc(Cl)c(-c3ccc(F)c(C(=O)O)n3)cc2S1(=O)=O [Example 141, (R)-6-(7-chloro-3-cyclohexyl-2-methyl-1,1-dioxido-5-phenyl-2,3,4,5-tetrahydrobenzo[f][1,2,5]thiadiazepin-8-yl)-3-fluoropicolinic acid] | 100 to 1000 nM
24 | CN1[C@H](C2CCCCC2)CN(c2ccccc2)c2cc(Cl)c(-c3cc(C(=O)O)cc(C(F)(F)F)c3)cc2S1(=O)=O [Example 142, (R)-3-(7-chloro-3-cyclohexyl-2-methyl-1,1-dioxido-5-phenyl-2,3,4,5-tetrahydrobenzo[f][1,2,5]thiadiazepin-8-yl)-5-(trifluoromethyl)benzoic acid] | 100 to 1000 nM
25 | CN1[C@H](C2CCCCC2)CN(c2ccccc2)c2cc(Cl)c(-c3ccc(C(F)(F)F)c(C(=O)O)c3)cc2S1(=O)=O [Example 143, (R)-5-(7-chloro-3-cyclohexyl-2-methyl-1,1-dioxido-5-phenyl-2,3,4,5-tetrahydrobenzo[f][1,2,5]thiadiazepin-8-yl)-2-(trifluoromethyl)benzoic acid] | 100 to 1000 nM

Other lines, results leading:

Row | EC50 | SMILES
26 | 100 to 1000 nM | CN1[C@H](C2CCCCO2)CN(c2ccccc2)c2cc(Cl)c(-c3ccc(F)c(C(=O)O)c3)cc2S1(=O)=O (stereo partly drawn) [Example 104, 5-((3S)-7-chloro-2-methyl-1,1-dioxido-5-phenyl-3-(tetrahydro-2H-pyran-2-yl)-2,3,4,5-tetrahydrobenzo[f][1,2,5]thiadiazepin-8-yl)-2-fluorobenzoic acid]
27 | < 100 nM | CN1[C@H](C2CCCCC2)CN(c2ccccc2)c2cc(Cl)c(-c3cc(Cl)c(C(=O)O)s3)cc2S1(=O)=O [Example 117]
28 | < 100 nM | COc1cc(-c2cc3c(cc2Cl)N(c2ccccc2)C[C@@H](C2CCCCC2)N(C)S3(=O)=O)sc1C(=O)O [Example 118]
29 | < 100 nM | CN1[C@H](C2CCCCC2)CN(c2ccccc2)c2cc(Cl)c(-c3sc(C(=O)O)cc3F)cc2S1(=O)=O [Example 119]
30 | < 100 nM | CC(C)[C@@H]1CN(c2ccccc2)c2cc(Cl)c(-c3cc(F)c(C(=O)O)s3)cc2S(=O)(=O)N1C [Example 120]
31 | < 100 nM | CN1[C@H](C2CCC2)CN(c2ccccc2)c2cc(Cl)c(-c3cc(F)c(C(=O)O)s3)cc2S1(=O)=O [Example 121]
32 | < 100 nM | Cc1sc(-c2cc3c(cc2Cl)N(c2ccccc2)C[C@@H](C2CCCCC2)N(C)S3(=O)=O)cc1C(=O)O [Example 122]
33 | < 100 nM | CN1[C@H](C2CCCCC2)CN(c2ccccc2)c2cc(Cl)c(-c3cc(C(=O)O)c(Cl)s3)cc2S1(=O)=O [Example 123]
34 | < 100 nM | Cc1cc(-c2cc3c(cc2Cl)N(c2ccccc2)C[C@@H](C2CCCCC2)N(C)S3(=O)=O)oc1C(=O)O [Example 124]
35 | < 100 nM | CN1[C@H](C2CCCCC2)CN(c2ccccc2)c2cc(Cl)c(-c3ccc(C(=O)O)s3)cc2S1(=O)=O [Example 130, (R)-5-(7-chloro-3-cyclohexyl-2-methyl-1,1-dioxido-5-phenyl-2,3,4,5-tetrahydrobenzo[f][1,2,5]thiadiazepin-8-yl)thiophene-2-carboxylic acid]
36 | < 100 nM | CN1[C@H](C2CCCCC2)CN(c2ccccc2)c2cc(Cl)c(-c3cc(C(=O)O)n(C)n3)cc2S1(=O)=O [Example 134]
